Measured values from ChEMBL document CHEMBL3085643, “Synthesis and evaluation in monkey of [(18)F]4-fluoro-N-methyl-N-(4-(6-(methylamino)pyrimidin-4-yl)thiazol-2-yl)benzamide ([(18)F]FIMX): a promising radioligand for PET imaging of brain metabotropic glutamate receptor 1 (mGluR1)” (J Med Chem, 2013).

Experiments:
[1] = Binding affinity to human sigma-2 receptor by PDSP assay
[2] = target: Sigma non-opioid intracellular receptor 1 (Homo sapiens, UniProt Q99720); assay: Binding affinity to human sigma-1 receptor by PDSP assay
[3] = target: Translocator protein (Homo sapiens, UniProt P30536); assay: Binding affinity to human TSPO receptor by PDSP assay
Translocator protein, sequence (P30536 whole entry): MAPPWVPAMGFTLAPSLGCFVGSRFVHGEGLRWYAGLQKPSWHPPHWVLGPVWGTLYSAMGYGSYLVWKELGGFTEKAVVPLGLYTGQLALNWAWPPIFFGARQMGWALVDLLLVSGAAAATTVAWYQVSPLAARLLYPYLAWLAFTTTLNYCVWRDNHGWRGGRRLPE

[4] = target: Sodium-dependent serotonin transporter (Homo sapiens, UniProt P31645); assay: Binding affinity to human SERT by PDSP assay
[5] = target: Glutamate [NMDA] receptor; assay: Binding affinity to human NMDA receptor by PDSP assay
[6] = target: Sodium-dependent noradrenaline transporter (Homo sapiens, UniProt P23975); assay: Binding affinity to human NET by PDSP assay
[7] = target: Mu-type opioid receptor (Homo sapiens, UniProt P35372); assay: Binding affinity to human mu opioid receptor by PDSP assay
Mu-type opioid receptor, sequence (P35372 whole entry): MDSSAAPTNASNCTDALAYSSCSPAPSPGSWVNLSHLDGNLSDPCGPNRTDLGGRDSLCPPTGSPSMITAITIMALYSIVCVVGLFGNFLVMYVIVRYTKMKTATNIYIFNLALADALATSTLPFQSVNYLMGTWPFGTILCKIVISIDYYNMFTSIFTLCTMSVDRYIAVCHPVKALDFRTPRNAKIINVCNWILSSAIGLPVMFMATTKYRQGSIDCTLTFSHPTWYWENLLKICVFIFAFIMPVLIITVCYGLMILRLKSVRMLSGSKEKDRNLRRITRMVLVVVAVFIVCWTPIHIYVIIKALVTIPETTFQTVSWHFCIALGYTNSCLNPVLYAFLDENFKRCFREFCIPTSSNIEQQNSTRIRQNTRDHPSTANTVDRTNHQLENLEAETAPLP

[8] = target: Muscarinic acetylcholine receptor M4 (Homo sapiens, UniProt P08173); assay: Binding affinity to human muscarinic M4 receptor by PDSP assay
[9] = target: Muscarinic acetylcholine receptor M5 (Homo sapiens, UniProt P08912); assay: Binding affinity to human muscarinic M5 receptor by PDSP assay
Muscarinic acetylcholine receptor M5, sequence (P08912 whole entry): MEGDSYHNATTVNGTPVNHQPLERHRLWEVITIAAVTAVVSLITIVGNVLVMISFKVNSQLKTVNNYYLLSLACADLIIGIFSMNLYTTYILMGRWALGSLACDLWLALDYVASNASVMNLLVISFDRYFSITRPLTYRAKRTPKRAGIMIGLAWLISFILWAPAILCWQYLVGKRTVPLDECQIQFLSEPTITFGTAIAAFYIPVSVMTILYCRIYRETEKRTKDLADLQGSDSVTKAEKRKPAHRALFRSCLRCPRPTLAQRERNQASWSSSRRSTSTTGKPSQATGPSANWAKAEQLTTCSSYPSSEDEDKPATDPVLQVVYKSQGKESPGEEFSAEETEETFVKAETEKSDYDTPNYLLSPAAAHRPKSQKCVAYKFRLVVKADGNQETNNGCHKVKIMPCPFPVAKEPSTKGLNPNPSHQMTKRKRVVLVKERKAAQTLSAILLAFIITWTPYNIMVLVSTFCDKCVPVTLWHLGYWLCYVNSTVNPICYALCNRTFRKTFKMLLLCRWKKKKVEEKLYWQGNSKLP

[10] = target: Muscarinic acetylcholine receptor M3 (Homo sapiens, UniProt P20309); assay: Binding affinity to human muscarinic M3 receptor by PDSP assay
[11] = target: Muscarinic acetylcholine receptor M2 (Homo sapiens, UniProt P08172); assay: Binding affinity to human muscarinic M2 receptor by PDSP assay
[12] = target: Muscarinic acetylcholine receptor M1 (Homo sapiens, UniProt P11229); assay: Binding affinity to human muscarinic M1 receptor by PDSP assay
[13] = target: Kappa-type opioid receptor (Homo sapiens, UniProt P41145); assay: Binding affinity to human kappa opioid receptor by PDSP assay
Kappa-type opioid receptor, sequence (P41145 whole entry): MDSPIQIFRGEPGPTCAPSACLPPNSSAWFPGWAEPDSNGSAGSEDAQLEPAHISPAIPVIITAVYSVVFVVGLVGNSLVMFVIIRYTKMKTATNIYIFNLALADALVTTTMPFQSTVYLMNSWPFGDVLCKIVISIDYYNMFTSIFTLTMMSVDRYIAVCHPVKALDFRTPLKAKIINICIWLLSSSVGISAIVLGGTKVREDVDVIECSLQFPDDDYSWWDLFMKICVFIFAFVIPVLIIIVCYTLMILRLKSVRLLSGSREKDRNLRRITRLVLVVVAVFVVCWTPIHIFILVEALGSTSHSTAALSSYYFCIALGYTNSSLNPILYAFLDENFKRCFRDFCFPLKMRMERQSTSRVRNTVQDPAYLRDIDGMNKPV

[14] = target: Histamine H3 receptor (Homo sapiens, UniProt Q9Y5N1); assay: Binding affinity to human histamine H3 receptor by PDSP assay
[15] = target: Histamine H1 receptor (Homo sapiens, UniProt P35367); assay: Binding affinity to human histamine H1 receptor by PDSP assay
[16] = target: GABA-A receptor; agonist GABA site; assay: Binding affinity to human GABAA receptor by PDSP assay; assay type: protein-complex assay
[17] = target: Delta-type opioid receptor (Homo sapiens, UniProt P41143); assay: Binding affinity to human delta opioid receptor by PDSP assay
Delta-type opioid receptor, sequence (P41143 whole entry): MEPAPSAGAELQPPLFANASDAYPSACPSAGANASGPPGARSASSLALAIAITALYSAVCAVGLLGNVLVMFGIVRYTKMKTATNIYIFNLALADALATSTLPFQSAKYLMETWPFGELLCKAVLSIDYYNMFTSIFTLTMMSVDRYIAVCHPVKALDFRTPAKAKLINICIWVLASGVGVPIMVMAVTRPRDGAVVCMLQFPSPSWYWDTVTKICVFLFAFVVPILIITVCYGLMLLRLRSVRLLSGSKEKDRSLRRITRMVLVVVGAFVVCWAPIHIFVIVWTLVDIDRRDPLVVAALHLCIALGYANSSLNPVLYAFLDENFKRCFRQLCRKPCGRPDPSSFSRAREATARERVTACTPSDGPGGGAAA

[18] = target: D(1B) dopamine receptor (Homo sapiens, UniProt P21918); assay: Binding affinity to human dopamine D5 receptor by PDSP assay
[19] = target: D(4) dopamine receptor (Homo sapiens, UniProt P21917); assay: Binding affinity to human dopamine D4 receptor by PDSP assay
D(4) dopamine receptor, sequence (P21917 whole entry): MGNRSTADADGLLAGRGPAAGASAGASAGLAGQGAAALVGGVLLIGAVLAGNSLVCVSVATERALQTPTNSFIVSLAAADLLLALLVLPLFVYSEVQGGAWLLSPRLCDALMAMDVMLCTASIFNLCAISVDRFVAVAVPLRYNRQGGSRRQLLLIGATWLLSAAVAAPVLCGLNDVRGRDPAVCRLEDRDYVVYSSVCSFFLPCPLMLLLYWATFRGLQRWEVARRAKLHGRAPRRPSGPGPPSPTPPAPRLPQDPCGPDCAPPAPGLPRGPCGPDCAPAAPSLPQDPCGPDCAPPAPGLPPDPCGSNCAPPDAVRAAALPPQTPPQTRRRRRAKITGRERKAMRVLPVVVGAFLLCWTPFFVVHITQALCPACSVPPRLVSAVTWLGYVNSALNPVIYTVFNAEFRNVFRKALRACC

[20] = target: D(3) dopamine receptor (Homo sapiens, UniProt P35462); assay: Binding affinity to human dopamine D3 receptor by PDSP assay
[21] = target: D(2) dopamine receptor (Homo sapiens, UniProt P14416); assay: Binding affinity to human dopamine D2 receptor by PDSP assay
D(2) dopamine receptor, sequence (P14416 whole entry): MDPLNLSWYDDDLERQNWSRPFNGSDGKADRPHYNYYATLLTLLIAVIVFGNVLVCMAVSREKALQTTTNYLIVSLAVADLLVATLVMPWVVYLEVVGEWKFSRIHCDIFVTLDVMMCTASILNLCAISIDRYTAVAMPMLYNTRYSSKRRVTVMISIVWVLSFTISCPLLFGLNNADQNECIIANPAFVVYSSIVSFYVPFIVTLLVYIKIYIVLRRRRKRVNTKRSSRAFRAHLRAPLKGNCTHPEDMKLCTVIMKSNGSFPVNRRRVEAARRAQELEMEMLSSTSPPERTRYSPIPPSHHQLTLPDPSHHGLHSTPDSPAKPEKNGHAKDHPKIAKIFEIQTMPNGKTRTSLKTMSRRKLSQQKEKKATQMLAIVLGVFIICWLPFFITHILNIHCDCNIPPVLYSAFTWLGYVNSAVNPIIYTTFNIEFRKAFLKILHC

[22] = target: D(1A) dopamine receptor (Homo sapiens, UniProt P21728); assay: Binding affinity to human dopamine D1 receptor by PDSP assay
[23] = Binding affinity to BZP site in rat brain by PDSP assay; assay type: tissue-based
[24] = target: Beta-3 adrenergic receptor (Homo sapiens, UniProt P13945); assay: Binding affinity to human beta3 adrenergic receptor by PDSP assay
Beta-3 adrenergic receptor, sequence (P13945 whole entry): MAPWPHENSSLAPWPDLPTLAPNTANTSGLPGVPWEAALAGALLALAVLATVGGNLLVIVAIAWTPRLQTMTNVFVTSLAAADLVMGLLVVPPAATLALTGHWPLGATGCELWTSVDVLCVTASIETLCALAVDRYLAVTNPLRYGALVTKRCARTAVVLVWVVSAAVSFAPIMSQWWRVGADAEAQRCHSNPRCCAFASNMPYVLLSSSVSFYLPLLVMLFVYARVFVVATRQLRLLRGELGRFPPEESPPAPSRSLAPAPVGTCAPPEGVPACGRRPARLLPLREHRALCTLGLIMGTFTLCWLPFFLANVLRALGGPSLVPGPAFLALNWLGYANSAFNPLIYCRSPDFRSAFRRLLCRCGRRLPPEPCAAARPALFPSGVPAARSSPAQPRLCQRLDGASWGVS

[25] = target: Beta-2 adrenergic receptor (Homo sapiens, UniProt P07550); assay: Binding affinity to human beta2 adrenergic receptor by PDSP assay
[26] = target: Beta-1 adrenergic receptor (Homo sapiens, UniProt P08588); assay: Binding affinity to human beta1 adrenergic receptor by PDSP assay
[27] = target: Alpha-2C adrenergic receptor (Homo sapiens, UniProt P18825); assay: Binding affinity to human alpha-2C adrenergic receptor by PDSP assay
[28] = target: Alpha-2B adrenergic receptor (Homo sapiens, UniProt P18089); assay: Binding affinity to human alpha-2B adrenergic receptor by PDSP assay
[29] = target: Alpha-1D adrenergic receptor (Homo sapiens, UniProt P25100); assay: Binding affinity to human alpha-1D adrenergic receptor by PDSP assay
Alpha-1D adrenergic receptor, sequence (P25100 whole entry): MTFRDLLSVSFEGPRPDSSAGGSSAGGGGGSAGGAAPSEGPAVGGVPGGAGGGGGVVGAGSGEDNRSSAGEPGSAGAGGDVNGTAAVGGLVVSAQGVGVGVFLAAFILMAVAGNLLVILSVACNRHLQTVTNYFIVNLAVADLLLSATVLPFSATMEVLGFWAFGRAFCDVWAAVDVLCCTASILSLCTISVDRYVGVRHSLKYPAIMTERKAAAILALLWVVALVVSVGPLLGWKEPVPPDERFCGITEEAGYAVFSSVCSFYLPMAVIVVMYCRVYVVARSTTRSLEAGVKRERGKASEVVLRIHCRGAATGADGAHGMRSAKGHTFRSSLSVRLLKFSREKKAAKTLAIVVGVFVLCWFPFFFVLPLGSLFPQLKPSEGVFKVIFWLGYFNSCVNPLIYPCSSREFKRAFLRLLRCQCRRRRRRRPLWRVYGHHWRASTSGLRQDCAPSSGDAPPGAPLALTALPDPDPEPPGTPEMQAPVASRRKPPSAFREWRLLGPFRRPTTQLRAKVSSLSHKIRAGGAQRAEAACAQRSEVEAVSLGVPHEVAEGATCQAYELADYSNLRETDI

[30] = target: Alpha-2A adrenergic receptor (Homo sapiens, UniProt P08913); assay: Binding affinity to human alpha-2A adrenergic receptor by PDSP assay
Alpha-2A adrenergic receptor, sequence (P08913 whole entry): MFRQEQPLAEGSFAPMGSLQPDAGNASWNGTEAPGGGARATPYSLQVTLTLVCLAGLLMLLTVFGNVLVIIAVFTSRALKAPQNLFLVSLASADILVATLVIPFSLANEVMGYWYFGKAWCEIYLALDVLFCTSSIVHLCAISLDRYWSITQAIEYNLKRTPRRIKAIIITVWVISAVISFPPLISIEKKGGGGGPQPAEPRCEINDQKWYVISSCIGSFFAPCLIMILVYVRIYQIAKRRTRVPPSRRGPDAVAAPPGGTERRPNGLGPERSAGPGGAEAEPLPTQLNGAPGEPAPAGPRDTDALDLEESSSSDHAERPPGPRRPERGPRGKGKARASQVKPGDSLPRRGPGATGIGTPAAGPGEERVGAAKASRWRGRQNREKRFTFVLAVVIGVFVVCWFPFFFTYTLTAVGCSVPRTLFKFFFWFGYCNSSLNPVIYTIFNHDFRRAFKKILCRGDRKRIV

[31] = target: Alpha-1A adrenergic receptor (Homo sapiens, UniProt P35348); assay: Binding affinity to human alpha-1A adrenergic receptor by PDSP assay
[32] = target: Alpha-1B adrenergic receptor (Homo sapiens, UniProt P35368); assay: Binding affinity to human alpha-1B adrenergic receptor by PDSP assay
[33] = target: 5-hydroxytryptamine receptor 7 (Homo sapiens, UniProt P34969); assay: Binding affinity to human 5-HT7 receptor by PDSP assay
[34] = target: 5-hydroxytryptamine receptor 6 (Homo sapiens, UniProt P50406); assay: Binding affinity to human 5-HT6 receptor by PDSP assay
[35] = target: 5-hydroxytryptamine receptor 5A (Homo sapiens, UniProt P47898); assay: Binding affinity to human 5-HT5A receptor by PDSP assay
5-hydroxytryptamine receptor 5A, sequence (P47898 whole entry): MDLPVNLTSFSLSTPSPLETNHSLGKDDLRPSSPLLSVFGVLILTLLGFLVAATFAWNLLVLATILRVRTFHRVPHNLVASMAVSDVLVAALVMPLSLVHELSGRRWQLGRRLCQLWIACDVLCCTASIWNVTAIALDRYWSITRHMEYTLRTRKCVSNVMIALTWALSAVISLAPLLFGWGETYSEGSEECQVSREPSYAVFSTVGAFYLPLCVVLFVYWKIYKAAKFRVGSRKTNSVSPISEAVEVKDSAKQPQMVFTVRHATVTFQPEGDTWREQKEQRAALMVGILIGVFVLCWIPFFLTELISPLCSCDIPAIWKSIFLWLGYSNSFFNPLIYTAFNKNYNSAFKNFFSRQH

[36] = target: 5-hydroxytryptamine receptor 3A (Homo sapiens, UniProt P46098); assay: Binding affinity to human 5-HT3 receptor by PDSP assay
[37] = target: 5-hydroxytryptamine receptor 2C (Homo sapiens, UniProt P28335); assay: Binding affinity to human 5-HT2C receptor by PDSP assay
[38] = target: 5-hydroxytryptamine receptor 2B (Homo sapiens, UniProt P41595); assay: Binding affinity to human 5-HT2B receptor by PDSP assay
[39] = target: 5-hydroxytryptamine receptor 1E (Homo sapiens, UniProt P28566); assay: Binding affinity to human 5-HT1E receptor by PDSP assay
[40] = target: 5-hydroxytryptamine receptor 1D (Homo sapiens, UniProt P28221); assay: Binding affinity to human 5-HT1D receptor by PDSP assay
[41] = target: 5-hydroxytryptamine receptor 1B (Homo sapiens, UniProt P28222); assay: Binding affinity to human 5-HT1B receptor by PDSP assay
[42] = target: 5-hydroxytryptamine receptor 1A (Homo sapiens, UniProt P08908); assay: Binding affinity to human 5-HT1A receptor by PDSP assay
5-hydroxytryptamine receptor 1A, sequence (P08908 whole entry): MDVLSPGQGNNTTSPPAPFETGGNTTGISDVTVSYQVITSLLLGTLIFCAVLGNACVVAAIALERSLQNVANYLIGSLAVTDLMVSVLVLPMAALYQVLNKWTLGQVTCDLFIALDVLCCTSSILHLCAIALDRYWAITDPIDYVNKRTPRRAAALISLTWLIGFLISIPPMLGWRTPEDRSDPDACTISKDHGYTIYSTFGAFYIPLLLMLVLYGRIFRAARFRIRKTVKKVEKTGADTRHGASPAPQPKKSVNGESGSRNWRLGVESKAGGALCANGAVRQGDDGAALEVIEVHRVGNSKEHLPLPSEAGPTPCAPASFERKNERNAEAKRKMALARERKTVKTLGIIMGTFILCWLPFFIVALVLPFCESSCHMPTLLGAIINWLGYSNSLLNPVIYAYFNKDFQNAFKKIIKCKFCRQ

[43] = target: Metabotropic glutamate receptor 5 (Homo sapiens, UniProt P41594); assay: Binding affinity to human mGluR5 by PDSP assay
[44] = target: Metabotropic glutamate receptor 5 (Rattus norvegicus, UniProt P31424); assay: Binding affinity to mGluR5 in rat brain; assay type: tissue-based

A Ki [1] of over 10 µM, a Ki [2] of over 10 µM and a Ki [3] of over 10 µM were found for `CNc1cc(-c2csc(N(C)C(=O)c3ccc(F)cc3)n2)ncn1` in this work. For the same compound, the Ki [4] was over 10 µM, the Ki [5] was over 10 µM and the Ki [6] was over 10 µM. It also gave a Ki [7] of over 10 µM, a Ki [8] of over 10 µM and a Ki [9] of over 10 µM. For the same compound, the Ki [10] was over 10 µM, the Ki [11] was over 10 µM and the Ki [12] was over 10 µM. For the same compound, the Ki [13] was over 10 µM, the Ki [14] was over 10 µM and the Ki [15] was over 10 µM. It also gave a Ki [16] of over 10 µM, a Ki [17] of over 10 µM and a Ki [18] of over 10 µM. For the same compound, the Ki [19] was over 10 µM, the Ki [20] was over 10 µM and the Ki [21] was over 10 µM. For the same compound, the Ki [22] was over 10 µM, the Ki [23] was over 10 µM and the Ki [24] was over 10 µM. It also gave a Ki [25] of over 10 µM, a Ki [26] of over 10 µM and a Ki [27] of over 10 µM. For the same compound, the Ki [28] was over 10 µM, the Ki [29] was over 10 µM and the Ki [30] was over 10 µM. It also gave a Ki [31] of over 10 µM, a Ki [32] of over 10 µM and a Ki [33] of over 10 µM. The Ki [34] was over 10 µM, the Ki [35] was over 10 µM and the Ki [36] was over 10 µM. The Ki [37] was over 10 µM, the Ki [38] was over 10 µM and the Ki [39] was over 10 µM. It also gave a Ki [40] of over 10 µM, a Ki [41] of over 10 µM and a Ki [42] of over 10 µM. The Ki [43] was 7.9 µM and the Ki [44] was 2.1 µM.
